According to ChEMBL document CHEMBL5584255, “Synthesis and antibacterial medicinal evaluation of carbothioamido hydrazonyl thiazolylquinolone with multitargeting antimicrobial potential to combat increasingly global resistance” (Eur J Med Chem, 2024):
In brackets after ≈: the same amount, converted by molar mass. Activity calls are given as the source filed them. The rule behind the calls is not given here.

Columns and labels:
Staphylococcus aureus [1] = assay: Antibacterial activity against drug-resistant Staphylococcus aureus by microbroth dilution method; format: functional
DNA [2] = assay: Binding affinity to drug-resistant Staphylococcus aureus DNA assessed as hypochromic effect at 7.86 x 10^-5 mol/L by UV-visible absorption spectra analysis; format: nucleic-acid assay; details: dose 7.86 10^-5mol/L
[3] = Toxicity in mouse assessed as change in kidney morphology at 5 to 10 mg/kg administered for 10 days by hematoxylin and eosin staining based assay; format: organism-based; details: in vivo, 240 h, dose 5-10 mg/kg, time 10 day
[4] = Hemolytic activity in human RBC assessed as hemolysis ratio at 0.0047 mM measured after 1 hr relative to control; format: toxicity, cell-based, Erythrocyte; details: red blood cells (erythrocytes)
Candida tropicalis = assay: Antifungal activity against drug-resistant Candida tropicalis; format: functional
[5] = Hemolytic activity in human RBC assessed as hemolysis ratio at 0.0094 mM measured after 1 hr relative to control; format: toxicity, cell-based, Erythrocyte; details: red blood cells (erythrocytes)
Candida parapsilosis = assay: Antifungal activity against Candida parapsilosis ATCC 22019; format: functional; details: Lodderomyces parapsilosis
Cell membrane = assay: Induction of membrane permeabilization in drug-resistant Staphylococcus aureus at 0.0283 mM measured within 60 mins by propidium iodide staining based fluorescence assay
Staphylococcus aureus [6] = assay: Induction of resistance development in Staphylococcus aureus measured after 16 passages; format: functional
Enterococcus faecalis = assay: Antibacterial activity against drug-resistant Enterococcus faecalis by microbroth dilution method; format: functional
DNA [7] = assay: Displacement of neutral red from drug-resistant Staphylococcus aureus DNA assessed as DNA intercalation by measuring blue shift up to 1.5 x 10^-5 mol/L by UV-visible absorption spectra analysis (reference value: 460 nm); format: nucleic-acid assay; details: dose <= 1.5 10^-5mol/L
Pseudomonas aeruginosa [8] = assay: Antibacterial activity against Pseudomonas aeruginosa ATCC 27853 by microbroth dilution method; format: functional
Topoisomerase IV = Topoisomerase IV (Staphylococcus aureus, UniProt P0C1S7+P0C1U9); assay: Inhibition of drug-resistant Staphylococcus aureus topoisomerase 4; format: protein-complex assay
Staphylococcus aureus [9] = assay: Antibacterial activity against methicillin-resistant Staphylococcus aureus N315 by microbroth dilution method; format: functional
Staphylococcus aureus [10] = assay: Antibacterial activity against Staphylococcus aureus ATCC 29213 by microbroth dilution method; format: functional
[11] = Cytotoxicity against mouse L929 cells assessed as cell viability up to 0.3019 mM measured after 72 hrs by MTT assay relative to control; format: toxicity, cell-based; details: read-out: Activity
[12] = Toxicity in mouse assessed as change in body weight at 5 to 10 mg/kg administered for 10 days; format: organism-based; details: in vivo, 240 h, dose 5-10 mg/kg, time 10 day
[13] = Toxicity in mouse assessed as change in liver morphology at 5 to 10 mg/kg administered for 10 days by hematoxylin and eosin staining based assay; format: organism-based; details: in vivo, 240 h, dose 5-10 mg/kg, time 10 day
Candida albicans [14] = assay: Antifungal activity against Candida albicans ATCC 90023; format: functional
Pseudomonas aeruginosa [15] = assay: Antibacterial activity against Pseudomonas aeruginosa by microbroth dilution method; format: functional
Staphylococcus aureus [16] = assay: Potency index, ratio of norfloxacin MIC to test compound MIC for drug-resistant Staphylococcus aureus by microbroth dilution method; format: functional
[17] = Hemolytic activity in human RBC assessed as hemolysis ratio at 0.0189 mM measured after 1 hr relative to control; format: toxicity, cell-based, Erythrocyte; details: red blood cells (erythrocytes)
[18] = Toxicity in mouse assessed as change in spleen morphology at 5 to 10 mg/kg administered for 10 days by hematoxylin and eosin staining based assay; format: organism-based; details: in vivo, 240 h, dose 5-10 mg/kg, time 10 day
[19] = Hemolytic activity in human RBC assessed as hemolysis ratio at 0.0024 mM measured after 1 hr relative to control; format: toxicity, cell-based, Erythrocyte; details: red blood cells (erythrocytes)
Aspergillus fumigatus = assay: Antifungal activity against Aspergillus fumigatus; format: functional
DNA [20] = assay: Binding affinity to drug-resistant Staphylococcus aureus DNA by UV-visible absorption spectra analysis; format: nucleic-acid assay
DNA [21] = assay: Displacement of neutral red from drug-resistant Staphylococcus aureus DNA assessed as DNA intercalation by UV-visible absorption spectra analysis; format: nucleic-acid assay; details: dose <= 1.5 10^-5mol/L
Klebsiella pneumoniae = assay: Antibacterial activity against Klebsiella pneumoniae by microbroth dilution method; format: functional
Escherichia coli [22] = assay: Antibacterial activity against drug-resistant Escherichia coli by microbroth dilution method; format: functional
Escherichia coli [23] = assay: Antibacterial activity against Escherichia coli ATCC 25922 by microbroth dilution method; format: functional
Acinetobacter baumannii = assay: Antibacterial activity against Acinetobacter baumannii by microbroth dilution method; format: functional
[24] = Cytotoxicity against human A549 cells assessed as cell viability up to 0.3019 mM measured after 72 hrs by MTT assay relative to control; format: toxicity, cell-based; details: read-out: Activity
Staphylococcus aureus [25] = assay: Antibacterial activity against Staphylococcus aureus ATCC 25923 by microbroth dilution method; format: functional
Candida albicans [26] = assay: Antifungal activity against drug-resistant Candida albicans; format: functional

Chain of Topoisomerase IV (P0C1U9 whole entry): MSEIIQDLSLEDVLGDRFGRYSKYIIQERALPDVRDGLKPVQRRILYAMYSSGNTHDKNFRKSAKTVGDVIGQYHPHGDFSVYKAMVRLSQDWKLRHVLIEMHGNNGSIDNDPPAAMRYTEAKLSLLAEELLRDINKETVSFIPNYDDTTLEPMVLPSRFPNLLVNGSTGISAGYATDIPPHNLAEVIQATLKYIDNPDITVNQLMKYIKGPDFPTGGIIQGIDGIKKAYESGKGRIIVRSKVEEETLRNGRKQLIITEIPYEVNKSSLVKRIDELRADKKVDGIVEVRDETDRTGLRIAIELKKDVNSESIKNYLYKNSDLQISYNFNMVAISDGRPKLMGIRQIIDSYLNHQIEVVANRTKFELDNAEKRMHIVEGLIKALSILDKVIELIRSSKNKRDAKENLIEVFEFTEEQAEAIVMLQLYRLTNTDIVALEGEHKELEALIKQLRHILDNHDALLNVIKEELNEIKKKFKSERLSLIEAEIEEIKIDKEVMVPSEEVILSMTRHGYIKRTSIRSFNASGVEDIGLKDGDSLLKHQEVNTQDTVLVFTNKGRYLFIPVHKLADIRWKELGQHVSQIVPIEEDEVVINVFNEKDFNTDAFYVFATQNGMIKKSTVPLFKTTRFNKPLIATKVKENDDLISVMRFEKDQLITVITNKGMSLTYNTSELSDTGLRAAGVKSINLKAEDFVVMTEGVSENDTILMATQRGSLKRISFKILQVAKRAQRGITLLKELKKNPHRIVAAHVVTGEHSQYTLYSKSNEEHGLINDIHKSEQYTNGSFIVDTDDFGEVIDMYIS
Chain of Topoisomerase IV (P0C1S7 whole entry): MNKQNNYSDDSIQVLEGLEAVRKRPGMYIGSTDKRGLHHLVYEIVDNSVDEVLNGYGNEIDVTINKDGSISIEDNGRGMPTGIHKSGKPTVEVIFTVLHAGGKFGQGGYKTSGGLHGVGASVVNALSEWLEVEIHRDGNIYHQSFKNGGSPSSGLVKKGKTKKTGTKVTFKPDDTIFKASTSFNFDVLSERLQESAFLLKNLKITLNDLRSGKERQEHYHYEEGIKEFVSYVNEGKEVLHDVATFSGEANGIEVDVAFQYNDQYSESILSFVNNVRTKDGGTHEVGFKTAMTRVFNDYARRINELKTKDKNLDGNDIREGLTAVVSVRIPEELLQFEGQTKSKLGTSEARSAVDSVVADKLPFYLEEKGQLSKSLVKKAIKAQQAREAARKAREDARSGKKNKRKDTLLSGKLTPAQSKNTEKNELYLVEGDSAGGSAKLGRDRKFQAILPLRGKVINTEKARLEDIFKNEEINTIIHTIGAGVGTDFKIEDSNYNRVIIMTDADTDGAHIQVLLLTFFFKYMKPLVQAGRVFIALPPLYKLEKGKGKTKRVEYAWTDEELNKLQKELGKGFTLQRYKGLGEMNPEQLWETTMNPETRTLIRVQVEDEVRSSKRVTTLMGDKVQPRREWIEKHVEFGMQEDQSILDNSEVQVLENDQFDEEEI

Which MIC (Staphylococcus aureus [1]) does the source give for `C/C(Cn1cc(-c2csc(N)n2)c(=O)c2cc(F)c(Cl)cc21)=N\NC(N)=S` here?
The MIC was 5 µM (≈ 2.12 µg/mL).

And the Activity (DNA [2])?
Its Activity is “Active”.

And the Activity [3]?
Its Activity is “Non-Toxic”.

What about the hemolysis at 1 h, 4.7 µM [4] of the same compound?
The hemolysis at 1 h, 4.7 µM was 1.07%.

What about the MIC (Candida tropicalis) of the same compound?
The MIC was 151 µM (≈ 64.2 µg/mL).

What about the hemolysis at 1 h, 9.4 µM [5] of the same compound?
The hemolysis at 1 h, 9.4 µM was 1.25%.

What about the MIC (Candida parapsilosis) of the same compound?
Its MIC is 5 µM (≈ 2.12 µg/mL).

What about the Activity (Cell membrane) of the same compound?
Its Activity is “Active”.

And the Activity (Staphylococcus aureus [6])?
The Activity was “Active”.

What about the MIC (Enterococcus faecalis) of the same compound?
The MIC was 302 µM (≈ 128 µg/mL).

And the Activity (DNA [7])?
The Activity was 420 nm.

What about the MIC (Pseudomonas aeruginosa [8]) of the same compound?
Its MIC is 19 µM (≈ 8.07 µg/mL).

What about the IC50 (Topoisomerase IV) of the same compound?
The IC50 was 10.9 µM.

What about the MIC (Staphylococcus aureus [9]) of the same compound?
The MIC was 38 µM (≈ 16.1 µg/mL).

What about the MIC (Staphylococcus aureus [10]) of the same compound?
The MIC was 5 µM (≈ 2.12 µg/mL).

What about the viability at 72 h, up to 301.9 µM [11] of the same compound?
The viability at 72 h, up to 301.9 µM was over 75%.

And the Activity [12]?
Its Activity is “Toxic”.

What about the Activity [13] of the same compound?
Its Activity is “Non-Toxic”.

What about the MIC (Candida albicans [14]) of the same compound?
Its MIC is 19 µM (≈ 8.07 µg/mL).

And the MIC (Pseudomonas aeruginosa [15])?
The MIC was 76 µM (≈ 32.3 µg/mL).

And the Ratio (Staphylococcus aureus [16])?
Its Ratio is 5.

And the hemolysis at 1 h, 18.9 µM [17]?
The hemolysis at 1 h, 18.9 µM was 2.21%.

What about the Activity [18] of the same compound?
The Activity was “Non-Toxic”.

And the hemolysis at 1 h, 2.4 µM [19]?
The hemolysis at 1 h, 2.4 µM was 0.472%.

What about the MIC (Aspergillus fumigatus) of the same compound?
The MIC was 151 µM (≈ 64.2 µg/mL).

And the K (DNA [20])?
Its K is 6.32 10^4L/mol.

And the Activity (DNA [21])?
Its Activity is “Dose-Dependent Effect”.

And the MIC (Klebsiella pneumoniae)?
The MIC was 302 µM (≈ 128 µg/mL).

And the MIC (Escherichia coli [22])?
The MIC was 151 µM (≈ 64.2 µg/mL).

What about the MIC (Escherichia coli [23]) of the same compound?
Its MIC is 19 µM (≈ 8.07 µg/mL).

And the MIC (Acinetobacter baumannii)?
Its MIC is 151 µM (≈ 64.2 µg/mL).

What about the viability at 72 h, up to 301.9 µM [24] of the same compound?
Its viability at 72 h, up to 301.9 µM is over 75%.

And the MIC (Staphylococcus aureus [25])?
Its MIC is 38 µM (≈ 16.1 µg/mL).

What about the MIC (Candida albicans [26]) of the same compound?
The MIC was 19 µM (≈ 8.07 µg/mL).
